# Source: publication PMC7057948, “A genome-wide approach for identification and characterisation of metabolite-inducible systems” (Nature Communications, 2020)
# Counter-ions that a name gives are not always drawn.
# Key:
# NahR = target: T1, NahR (Cupriavidus necator, UniProt G0EUZ9); assay: RFP reporter dose-response in C. necator H16, Hill fit; format: cell-based; details: read-out: Km^b
# T1 construct: native full-length gene, divergent to operon starting at H16_RS08125; reporter plasmid pEH042 (plasmid assigned by list order); not the P. putida NahR
# T1 sequence (G0EUZ9 1-300): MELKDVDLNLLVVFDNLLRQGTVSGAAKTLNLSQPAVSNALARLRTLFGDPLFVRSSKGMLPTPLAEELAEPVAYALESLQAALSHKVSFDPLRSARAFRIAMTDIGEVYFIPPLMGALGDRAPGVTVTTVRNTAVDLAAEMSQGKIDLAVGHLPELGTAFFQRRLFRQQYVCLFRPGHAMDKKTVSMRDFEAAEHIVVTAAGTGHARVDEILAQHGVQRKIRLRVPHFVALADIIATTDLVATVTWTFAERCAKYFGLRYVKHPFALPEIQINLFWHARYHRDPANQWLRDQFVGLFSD
# BenM [1] = target: T2, BenM (Cupriavidus necator, UniProt Q0KAA5); assay: as above; format: cell-based; details: read-out: Km^b
# T2 construct: native full-length gene, divergent to operon starting at H16_RS09790; reporter plasmid pEH148 (plasmid assigned by list order)
# T2 sequence (Q0KAA5 1-305): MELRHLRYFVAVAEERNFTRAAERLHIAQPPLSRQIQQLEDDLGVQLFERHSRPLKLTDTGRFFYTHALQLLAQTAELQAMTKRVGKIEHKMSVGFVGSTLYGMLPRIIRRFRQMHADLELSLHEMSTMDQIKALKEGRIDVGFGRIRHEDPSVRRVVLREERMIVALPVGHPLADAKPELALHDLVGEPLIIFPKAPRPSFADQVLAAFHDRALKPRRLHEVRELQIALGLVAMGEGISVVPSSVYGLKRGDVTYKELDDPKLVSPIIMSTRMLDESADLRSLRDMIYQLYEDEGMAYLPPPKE
# Source text: RFP reporter dose-response in C. necator H16, Hill fit on BenM
# FdsR [2] = target: T3, FdsR (Cupriavidus necator, UniProt Q0KDY4); assay: cell-based; design: RFP reporter induction by transcription factor biosensor, single time-point fluorescence in LB, relative to primary effector; details: Escherichia coli TOP10; relative to primary effector, E. coli, LB; read-out: % activation
# T3 construct: native full-length gene, divergent to operon starting at H16_RS03165; reporter plasmid pEH134 (plasmid assigned by list order)
# T3 sequence (Q0KDY4 1-364): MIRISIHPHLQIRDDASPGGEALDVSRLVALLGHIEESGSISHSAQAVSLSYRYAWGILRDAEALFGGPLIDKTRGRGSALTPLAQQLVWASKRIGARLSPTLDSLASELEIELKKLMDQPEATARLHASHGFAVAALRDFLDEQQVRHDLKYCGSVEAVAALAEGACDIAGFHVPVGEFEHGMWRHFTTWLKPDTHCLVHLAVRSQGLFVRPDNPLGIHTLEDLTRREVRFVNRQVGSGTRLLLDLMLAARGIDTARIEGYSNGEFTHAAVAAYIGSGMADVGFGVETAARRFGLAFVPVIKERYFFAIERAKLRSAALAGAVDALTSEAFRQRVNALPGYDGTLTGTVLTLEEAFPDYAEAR
# Source text: (§1) TRs often recognise molecules that are structurally similar to their primary effectors. For example, isopropyl β-D-1-thiogalactopyranoside is a commonly used structural analogue of allolactose, employed to control the expression of genes regulated by LacI. Here, the TR’s specificity was investigated to identify previously uncharacterised ligand–TR interactions and consequently extend the biosensor application to the detection of structurally similar or metabolically related compounds. To do so, the library of 21 native and heterologous inducible systems was screened against 46 compounds using an integrated robotic platform, as described in the previous section. […] Similarly to the former orthogonality screen (Fig. 6a), it should be noted that activation of reporter gene expression by the extracellularly added compounds likely indicates a structural resemblance to the primary ligand, a metabolic relationship or a combination thereof. To shed light on their cause of system activation, cultures of E. coli carrying the functional formate-, [compound left out]-, benzoate-, 3,4-dihydroxybenzoate-, acetoin- and β-alanine-inducible systems, active in this host organism, were evaluated for the same cross-reactivity (Supplementary Table 5).  Fig. 3 C. necator native systems mediate controllable gene expression in E. coli and P. putida. Single time-point fluorescence measurements of a, b E. coli and c, d P. putida carrying the C. necator-inducible gene expression systems composed of TR and promoter a, c or ‘promoter only’ version b, d. The plasmids harbouring the individual system– or promoter–reporter gene constructs are indicated. RFP fluorescence output was determined in the absence of inducer (light purple and light blue) and 6 h after extracellular supplementation with the corresponding primary effector to a final concentration of 5 mM (dark purple and dark blue). Data are mean ± SD, n = 3, *p < 0.05, **p < 0.01, ***p ≤ 0.001, ****p ≤ 0.0001, unpaired two-tailed t-test. Source data are provided as a Source Data file. All strains used in this study are listed in Supplementary Table 7. E. coli TOP10 (Life Technologies) was used for cloning and plasmid propagation. For single time-point fluorescence measurements and flow cytometric analyses, bacterial strains were propagated in Luria-Bertani (LB) medium. To determine the dose–responses and to evaluate inducer TR cross-reactivity, C. necator was cultivated in MM containing 1 g/L NH4Cl, 9 g/L Na2HPO4·12H2O, 1.5 g/L KH2PO4, 0.2 g/L MgSO4·7H2O, 0.02 g/L CaCl2·2H2O and 0.0012 g/L (NH4)5[Fe(C6H4O7)2] with 1 mL/L trace element solution SL7 (1.3 mL/L 25% (w/v) HCl, 0.07 g/L ZnCl2, 0.1 g/L MnCl2·4H2O, 0.062 g/L H3BO3, 0.190 g/L CoCl2·6H2O, 0.017 g/L CuCl2·2H2O, 0.024 g/L NiCl2·6H2O and 0.036 g/L Na2MoO4·2H2O) supplemented with 0.4% (w/v) sodium gluconate. If required, antibiotics were added to the growth medium at the following concentrations: 12.5 µg/mL tetracycline or 25 µg/mL chloramphenicol for E. coli, 50 µg/mL chloramphenicol for C. necator and 25 µg/mL tetracycline for P. putida. For solid media preparation, 15 g/L agar was added.
# BenM [3] = target: T2, BenM; assay: cell-based; design: RFP reporter induction by transcription factor biosensor, single time-point fluorescence in LB, relative to primary effector; details: Escherichia coli TOP10; relative to primary effector, E. coli, LB; read-out: % activation
# Source text: as §1
# PhgR = test system: T4, PhgR; assay: RFP reporter dose-response in C. necator H16, Hill fit; format: cell-based, Cupriavidus necator; details: inducer concentration for half-maximal activation; extracellular inducer, minimal medium, 30 °C, 80 min; whole cells with chromosomal regulator copy; read-out: Km^b
# T4 construct: native full-length gene, divergent to operon starting at H16_RS05530; reporter plasmid pEH155 (plasmid assigned by list order)
# BenM [4] = assay: cells; design: species or system Cupriavidus necator H16; RFP reporter induction by transcription factor biosensor, fluorescence normalised to cell density, relative to primary effector; details: 6 h; relative to primary effector, C. necator, MM; read-out: % activation
# Method: (§2) To screen the 441 combinations of inducer and biosensor for cross-reactivity, we employed an automated platform (see Methods section). Strains of C. necator harbouring the inducible systems were grown in MM and transferred to a 96-well microtiter plate format. After the inducers had been extracellularly added, cells were cultured for 6 h before RFP fluorescence and cell density were measured. […] The remaining six inducible systems were activated by one or more metabolites other than their cognate inducers. This cross-reactivity may be the result of either structural resemblance, a metabolic relationship or a combination thereof. For example, L-phenylalanine is converted into L-tyrosine by the phenylalanine 4-monooxygenase PhhA (H16_RS18365). Therefore, activation of the L-tyrosine-inducible system by L-phenylalanine is more likely to be due to biological conversion of the added compound into the primary effector rather than direct interaction of L-phenylalanine with HpdA. However, since the difference between the two molecules lies in a singly hydroxyl-group, an induction by structural resemblance cannot be entirely ruled out. The same applies to phenylglyoxylate that activated the benzoate-inducible system. Phenylglyoxylate is converted by C. necator into benzoate via a two-step reaction with benzaldehyde as intermediate compound. During the first reaction, carbon dioxide is generated that may also explain induction of the formate-inducible system by the structurally dissimilar phenylglyoxylate. Since carbon dioxide can subsequently be converted into formate, it is rational to postulate that the FdsR/PH16_RS03165-inducible system is activated in this case by its primary inducer. In addition to phenylglyoxylate, the benzoate-inducible system was activated by extracellular supplementation with cyclohexanecarboxylate and cumate. Cyclohexanecarboxylate shares both a structural resemblance to benzoate and downstream  Fig. 6 Orthogonality of inducible systems. a Cross-reactivity of a set of 21 inducible systems and their corresponding primary inducers. The heat map illustrates induction of reporter gene expression in the presence of the metabolite (in %) relative to the induction mediated by the corresponding primary effector. Measurements were taken 6 h after supplementation with inducer at a final concentration of 5 mM. Data are mean, n = 4. Source data are provided as a Source Data file. b Fluorescence output of individual cells of C. necator carrying pEH263 measured by flow cytometry. The vector pEH263 contains the 3,4-dihydroxybenzoate- and [compound left out]-inducible systems controlling expression of rfp and egfp, respectively. Fluorescence was determined in the absence of inducer (orange), in the presence of 3,4-dihydroxybenzoate (blue), [compound left out] (green), and both 3,4-dihydroxybenzoate and [compound left out] (purple). Effector concentrations correspond to their respective Km’s and fluorescence was measured 2 h after inducer addition.
# FdsR [5] = assay: cells; design: species or system Cupriavidus necator H16; RFP reporter induction by transcription factor biosensor, fluorescence normalised to cell density, relative to primary effector; details: 6 h; relative to primary effector, C. necator, MM; read-out: % activation
# Method: as §2
# TtdR = test system: T5, TtdR; assay: RFP reporter dose-response in C. necator H16, Hill fit; format: cell-based, Cupriavidus necator; details: inducer concentration for half-maximal activation; extracellular inducer, minimal medium, 30 °C, 80 min; whole cells with chromosomal regulator copy; read-out: Km^b
# T5 construct: native full-length gene, divergent to operon starting at H16_RS10665; reporter plasmid pEH083 (plasmid assigned by list order)
smiles,measurement,setting,value
"O=C(O)c1ccccc1O [compound 5, Salicylate]",EC50,NahR,2.12 ± 0.49 µM
"O=C(O)c1ccccc1 [compound 6, Benzoate]",EC50,BenM [1],12.6 ± 0.8 µM
"O=C(O)C(=O)c1ccccc1 [compound 4, Phenylglyoxylate]",activity at 5000 µM,FdsR [2],0%
same,activity at 5000 µM,BenM [3],0.19%
same,EC50,PhgR,595 ± 133 µM
same,activity at 5000 µM,BenM [4],17%
same,activity at 5000 µM,FdsR [5],52%
"O=C(O)C(O)C(O)C(=O)O (centres unmarked) [compound 7, Tartrate]",EC50,TtdR,61500 ± 22900 µM
